From ChEMBL document CHEMBL1158132, “26,27-cyclosterols and other polyoxygenated sterols from a marine sponge Topsentia sp” (2006)
Converted amounts (≈) assume the structure as drawn.

Assays:
Type in all cases: functional
Details in all cases: read-out: ED50 (the source's name)
[1] = tested on: A549; test: Cytotoxicity against human A549 cells
[2] = tested on: SK-OV-3; test: Cytotoxicity against human SKOV3 cells
[3] = tested on: SK-MEL-2; test: Cytotoxicity against human SK-MEL-2 cells
[4] = tested on: XF498; test: Cytotoxicity against human XF498 cells
[5] = tested on: HCT-15; test: Cytotoxicity against human HCT-15 cells

Compound | EC50 [1] [µg/mL] | EC50 [2] [µg/mL] | EC50 [3] [µg/mL] | EC50 [4] [µg/mL] | EC50 [5] [µg/mL]
CC(C)=C[C@@H](C)[C@H]1CC[C@@H]2[C@]1(C)CC[C@H]1[C@]23C=C[C@]2(CCCC[C@]12C)OO3 | 30 (≈ 81 µM) | 19.4 (≈ 52.4 µM) | 25.9 (≈ 69.9 µM) | > 30 | 21.4 (≈ 57.7 µM)
CC(C)[C@@H](C)/C=C/[C@@H](C)[C@H]1CC[C@@H]2[C@]1(C)CC[C@H]1[C@]23C=C[C@]2(CCCC[C@]12C)OO3 | 17.5 (≈ 42.4 µM) | 17.8 (≈ 43.1 µM) | 19.4 (≈ 47 µM) | 24.7 (≈ 59.9 µM) | 21.1 (≈ 51.1 µM)
CC(C)C/C=C/[C@@H](C)[C@H]1CC[C@H]2C3=C(CC[C@]12C)[C@@]1(C)CC[C@H](O)CC1=CC3=O | > 30 | > 30 | > 30 | > 30 | 38.4 (≈ 96.8 µM)
CC(C)[C@@H](C)/C=C/[C@@H](C)[C@H]1CCC2=C3[C@H](O)[C@@H]4O[C@@]45C[C@@H](O)CC[C@]5(C)[C@H]3CC[C@@]21C | > 30 | 17.9 (≈ 41.8 µM) | > 30 | > 30 | 17.9 (≈ 41.8 µM)
CC(C)C/C=C/[C@@H](C)[C@H]1CC[C@@H]2[C@]1(C)CC=C1[C@]23C=C[C@]2(CCCC[C@]12C)OO3 | 6.3 (≈ 15.9 µM) | 6.3 (≈ 15.9 µM) | 5.2 (≈ 13.1 µM) | 11.4 (≈ 28.7 µM) | 4.7 (≈ 11.9 µM)
COc1cccc2c1C(=O)c1c(O)c3c(c(O)c1C2=O)C[C@@](O)(C(=O)CO)C[C@@H]3O[C@H]1C[C@H](N)[C@H](O)[C@H](C)O1 [DOXORUBICIN] | 0.08 (≈ 0.147 µM) | 0.19 (≈ 0.35 µM) | 0.08 (≈ 0.147 µM) | 0.07 (≈ 0.129 µM) | 0.13 (≈ 0.239 µM)
CCC(C)/C=C/[C@@H](C)[C@H]1CC[C@@H]2[C@]1(C)CC=C1[C@]23C=C[C@]2(CCCC[C@]12C)OO3 (stereo not given in full) [TOPSENTISTEROL A3] | 5.4 (≈ 13.6 µM) | 7.1 (≈ 17.9 µM) | 4.6 (≈ 11.6 µM) | 6.2 (≈ 15.6 µM) | 4.2 (≈ 10.6 µM)
CC(C)[C@H](C)/C=C/[C@@H](C)[C@H]1CC[C@H]2C3=C(CC[C@]12C)[C@@]1(C)CC[C@H](O)C[C@@]12O[C@H]2[C@H]3O [TOPSENTISTEROL B4] | 9.7 (≈ 22.6 µM) | 7.8 (≈ 18.2 µM) | 11.3 (≈ 26.4 µM) | 19 (≈ 44.3 µM) | 14.1 (≈ 32.9 µM)
CC(C)[C@H](C)/C=C/[C@@H](C)[C@H]1CCC2=C3[C@H](O)[C@@H]4O[C@@]45C[C@@H](O)CC[C@]5(C)[C@H]3CC[C@@]21C [TOPSENTISTEROL B5] | 13.9 (≈ 32.4 µM) | 7.9 (≈ 18.4 µM) | 5.5 (≈ 12.8 µM) | > 30 | 18.4 (≈ 42.9 µM)
C[C@H](CC[C@@H](C)[C@H]1CC[C@H]2C3=CC(=O)[C@@]4(O)C[C@@H](O)CC[C@]4(C)[C@@]3(O)CC[C@]12C)[C@@H]1C[C@H]1C [TOPSENTISTEROL C1] | 7.7 (≈ 16.8 µM) | 4.2 (≈ 9.16 µM) | 11.3 (≈ 24.6 µM) | 17.7 (≈ 38.6 µM) | 6.1 (≈ 13.3 µM)
CO[C@@H]1C=C2[C@@H]3CC[C@H]([C@H](C)/C=C/[C@@H](C)C(C)C)[C@@]3(C)CC[C@]2(O)[C@@]2(C)CC[C@H](O)C[C@]12O [TOPSENTISTEROL C3] | 5.6 (≈ 12.2 µM) | 7.8 (≈ 16.9 µM) | 11.5 (≈ 25 µM) | 4.7 (≈ 10.2 µM) | 4.3 (≈ 9.33 µM)
CC(C)[C@H](C)/C=C/[C@@H](C)[C@H]1CC[C@H]2C3=C(CC[C@]12C)[C@@]1(C)CC[C@H](O)CC1=CC3=O [TOPSENTISTEROL D3] | > 30 | > 30 | 24.5 (≈ 59.7 µM) | > 30 | 33.6 (≈ 81.8 µM)
